# Experiments:
# [1] = test system: Kleidermotte Tineola bisselliella Hum.; experiment: Moth-proofing test (SNV 195901) on wool treated by pad (Foulard) application, Example 5; format: in vivo; conditions: 15 larvae, 14 days, 28°C, 65 % r.h.
# Excerpt: (§1) Die mit den zu prüfenden Verbindungen ausgerüsteten trockenen Wollmuster werden der Mottenechtheitsprüfung (Frassschutz gegen die Kleidermotte Tineola bisselliella Hum.) sowie der Echtheitsprüfung gegen Larven des Pelzkäfers (Attagenus piceus Oliv.) und Teppichkäfers (Anthrenus flavipes var. seminiveus) gemäss der Vorschrift des Schweizer Normenverbandes SNV 195901 unterworfen.
# (§2) Es werden jeweils Larven von Tineola und Larven von Anthrenus und 6 bis 7 Wochen alte Larven von Attagenus zur Prüfung verwendet.
# (§3) Aus dem behandelten Wollflanellmuster werden Stücke gleicher Grösse ausgeschnitten und 14 Tage lang bei konstanter Temperatur (28°C) und konstanter relativer Luftfeuchtigkeit (65 %) dem Angriff (Frass) von je 15 Larven des entsprechenden Schädlings ausgesetzt. Die Beurteilung für alle 3 Schädlinge erfolgt nach dem Gewichtsverlust des Wollmusters.
# (§4) 12,5 ml der jeweiligen, die zu prüfenden Verbindungen Nr. 101, 102, 201, 203, 205, 301 und 302 enthaltenden Stammlösung gemäss Beispiel 4 werden mit Aethylenglykolmonoäthyläther, der 1 g/1 eines Netz- und Dispergiermittels enthält, verdünnt. Die'Verdünnung erfolgt in der Weise, dass in der erhaltenen Foulardflotte die Konzentration der jeweils zu prüfenden Verbindung so eingestellt ist, dass auf dem Wollgewebe nach dem foulardieren x ppm des jeweiligen Wirkstoffes vorhanden sind (siehe Tabelle 2). Jeweils 3 ml der erhaltenen Lösung werden in eine Kristallisierschale gegeben. Darin wird eine geköderte Rondelle aus Wollgewebe mit Hilfe einer Pinzette ca. 3 Sekunden lang benetzt. Die feuchten Rondellen werden dann zwischen 2 Aluminiumfolien foulardiert, und zwar derart, dass die abgequetschten Rondellen je 100 X, bezogen auf ihr Gewicht, an Flotte aufgenommen haben. Die feuchten Rondellen werden an der Luft getrocknet und den gleichen biologischen Prüfungen unterworfen, die in Beispiel 4 beschrieben sind. Die Ergebnisse sind in der nachfolgenden Tabelle 2 zusammengefassst: […]
# [2] = test system: die in Beispiel 4 genannten keratinfressenden Schädlinge; experiment: Protection of wool articles treated in a dry-cleaning liquor, Example 6; format: in vivo, Tineola bisselliella, Attagenus piceus, Anthrenus flavipes; conditions: 10%-ige solution diluted 1:200 by volume in dry-cleaning solvent; wool spun to ca. 100 % solvent content, dried
# Excerpt: Beispiel 6: Es wird jeweils eine 10%-ige Lösung der Verbindungen Nr. 101, 201, 202 und 301 in Aethylenglykolmonomethyläther hergestellt. Ein Volumenteil dieser Lösung wird mit 200 Volumen- 'teilen eines zur Trockenreinigung geeigneten Lösungsmittels, z.B. einer passenden Benzinfraktion oder Perchloräthylen, verdünnt. Gewünschtenfalls können noch reinigungsfördernde Zusätze beigefügt werden. Wollartikel werden nun wie üblich in diesen Reinigungsflüssigkeiten behandelt und anschliessend auf einen Lösungsmittelgehalt von ca. 100 % des Wollgewichtes abgeschleudert.
# [3] = test system: Larven des Pelzkäfers (Attagenus piceus Oliv.); experiment: Fastness test against fur beetle larvae (SNV 195901) on wool treated in the exhaust bath, Example 4; format: in vivo; conditions: 15 larvae, 14 days, 28°C, 65 % r.h.
# Description: (§5) Von den zu prüfenden Verbindungen Nr. 101, 102, 201, 203, 205, 301 und 302 werden Stammlösungen durch Auflösung von jeweils 50 mg der Wirksubstanz in 25 ml Aethylenglykolmonoäthyläther bereitet.
# (§6) 3 g schwere, gut vorgenetzte Wollgewebstücke werden in eine 30°C warme wässrige Flotte eingebracht, die folgende Bestandteile enthält: • x ppm, bezogen auf das Wollgewicht, der jeweils zu prüfenden Verbindung (eine entsprechende Menge der oben beschriebenen Stammlösung wird der Flotte zugegeben). • 1 X, bezogen auf das Wollgewicht, 80%-ige Essigsäure. • 4 X, bezogen auf das Wollgewicht, Ammoniumsulfat. • 0,5 g/1 Flotte eines Netz- und Dispergiermittels.
# (§7) Die Temperatur der Flotte wird innerhalb 20 Minuten auf 98°C gesteigert und 60 Minuten bei dieser Temperatur belassen. Nach dem Abkühlen werden die Muster einzeln mit Wasser gespült und bei Raumtemperatur getrocknet.
# as §1, §2, §3
# (§8) .Aus der nachfolgenden Tabelle 1 ist für die geprüften Verbindungen die jeweilige Einsatzkonzentration (in ppm, bezogen auf das Wollgewicht) und der durch den Schädlingsfrass verursachte Gewichtsverlust (in mg) zu entnehmen: […]
# [4] = test system: Larven des Teppichkäfers (Anthrenus flavipes var. seminiveus); experiment: Fastness test against carpet beetle larvae (SNV 195901) on wool treated in the exhaust bath, Example 4; format: in vivo; conditions: 15 larvae, 14 days, 28°C, 65 % r.h.
# Description: as §5, §6, §7, §1, §2, §3, §8
# [5] = test system: die in Beispiel 4 genannten keratinfressenden Schädlinge; experiment: Protection of wool articles treated by spray application, Example 7; format: in vivo, Tineola bisselliella, Attagenus piceus, Anthrenus flavipes; conditions: 0,5%-ige solution sprayed, 2 x 15 g/m^2; about 400 ppm active on the material
# Excerpt: Beispiel 7: Es wird jeweils eine 0,5%-ige Lösung der Verbindungen Nr. 101, 201, 202 und 301 in Methylenchlorid, Trichloräthylen oder einer tiefsiedenden Benzinfraktion angesetzt. Wollartikel werden mit Hilfe einer üblichen Sprüheinrichtung mit diesen Lösungen besprüht, so dass 2 x 15 g/m^2 an Wirkstofflösung appliziert werden. Bei einem Ausnützungseffekt des Aerosols von 30 % befinden sich dann etwa 400 ppm der jeweiligen Wirkstoffverbindung auf dem Material.
# [6] = test system: Larven des Teppichkäfers (Anthrenus flavipes var. seminiveus); experiment: Fastness test against carpet beetle larvae (SNV 195901) on wool treated by pad (Foulard) application, Example 5; format: in vivo; conditions: 15 larvae, 14 days, 28°C, 65 % r.h.
# Excerpt: as §1, §2, §3, §4
# [7] = test system: Kleidermotte Tineola bisselliella Hum.; experiment: Moth-proofing test (feeding protection, SNV 195901) on wool treated in the exhaust bath, Example 4; format: in vivo; conditions: 15 larvae, 14 days, 28°C, 65 % r.h.
# Description: as §5, §6, §7, §1, §2, §3, §8
# [8] = test system: Larven des Pelzkäfers (Attagenus piceus Oliv.); experiment: Fastness test against fur beetle larvae (SNV 195901) on wool treated by pad (Foulard) application, Example 5; format: in vivo; conditions: 15 larvae, 14 days, 28°C, 65 % r.h.
# Excerpt: as §1, §2, §3, §4
# [9] = Einsatzkonzentration 30 ppm on wool
# [10] = Einsatzkonzentration 30 ppm on wool weight
# [11] = Einsatzkonzentration 300 ppm on wool weight
# [12] = Einsatzkonzentration 250 ppm on wool
# [13] = Einsatzkonzentration 7,5 ppm on wool
# [14] = Einsatzkonzentration 125 ppm on wool weight
# [15] = Einsatzkonzentration 125 ppm on wool
# [16] = Einsatzkonzentration 7,5 ppm on wool weight
# [17] = Einsatzkonzentration 15 ppm on wool
Structure (SMILES),"Gewichtsverlust [1, 9]",Schutz gegen keratinfressende Schädlinge [2],"Gewichtsverlust [3, 10]","Gewichtsverlust [4, 11]",Schutz gegen keratinfressende Schädlinge [5],"Gewichtsverlust [6, 12]","Gewichtsverlust [7, 10]","Gewichtsverlust [8, 9]","Gewichtsverlust [1, 13]","Gewichtsverlust [4, 14]","Gewichtsverlust [6, 15]","Gewichtsverlust [7, 16]","Gewichtsverlust [8, 17]","Gewichtsverlust [3, 16]","Gewichtsverlust [8, 13]"
"CC#CC(OC(=O)C1C(C=C(Cl)Cl)C1(C)C)c1cccc(Oc2ccccc2)c1 (mixture of isomers) [Verbindung 101, (±)-cis-2,2-Dimethyl-3-(2,2-dichlorvinyl)-cyclopropancarbonsäure-3-phenoxy-α-propin-1-yl-benzylester]","1,0 mg",hervorragend gegen die in Beispiel 4 genannten keratinfressenden Schädlinge geschützt,"9,0 mg","9,2 mg",gegen die in Beispiel 4 genannten keratinfressenden Schädlinge geschützt,"1,1 mg","1,2 mg","2,0 mg",–,–,–,–,–,–,–
"CC1(C)C(C=C(Cl)Cl)C1C(=O)OC(C#N)c1cccc(Oc2ccccc2)c1 (mixture of isomers) [Verbindung 202, (±)-cis-2,2-Dimethyl-3-(2,2-dichlorvinyl)-cyclopropancarbonsäure-3-phenoxy-a-cyano-benzylester]",–,hervorragend gegen die in Beispiel 4 genannten keratinfressenden Schädlinge geschützt,–,–,gegen die in Beispiel 4 genannten keratinfressenden Schädlinge geschützt,–,–,–,–,–,–,–,–,–,–
"CC1(C)C(C=C(Cl)Cl)C1C(=O)OCc1cccc(Oc2ccccc2)c1 (mixture of isomers) [Verbindung 205, (+)-cis, trans-2,2-Dimethyl-3-(2,2-dichlorvinyl)-cyclopropancarbonsäure-3-phenoxybenzylester]",–,–,"14,9 mg",–,–,–,–,–,"5,5 mg","29,2 mg","11,0 mg","5,8 mg","32,5 mg",–,–
"CC1(C)C(C=C(Cl)Cl)C1C(=O)OC(C#N)c1ccc(F)c(Oc2ccccc2)c1 (mixture of isomers) [Verbindung 301, (±)-cis-2,2-Dimethyl-3-(2,2-dichlorvinyl)-cyclopropancarbonsäure-3-phenoxy-4-fluor-a-cyanobenzylester]",–,hervorragend gegen die in Beispiel 4 genannten keratinfressenden Schädlinge geschützt,–,–,gegen die in Beispiel 4 genannten keratinfressenden Schädlinge geschützt,–,–,–,–,"14,9 mg","0,1 mg",0 mg,–,"11,4 mg","0,8 mg"
"CC1(C)C(C=C(Cl)Cl)C1C(=O)OCc1cccc(Oc2ccccc2)c1 (racemic) [Verbindung 201, (+)-cis-2,2-Dimethyl-3-(2,2-dichlorvinyl)-cyclopropancarbonsäure-3-phenoxybenzylester]",–,hervorragend gegen die in Beispiel 4 genannten keratinfressenden Schädlinge geschützt,"4,3 mg",–,gegen die in Beispiel 4 genannten keratinfressenden Schädlinge geschützt,–,–,–,"1,9 mg","18,9 mg","1,2 mg","1,7 mg","3,7 mg",–,–
"CC#CC(OC(=O)[C@H]1[C@H](C=C(Cl)Cl)C1(C)C)c1cccc(Oc2ccccc2)c1 (relative stereo) [Verbindung 102, (+)-trans-2,2-Dimethyl-3-(2,2-dichlorvinyl)-cyclopropancarbonsäure-3-phenoxy-a-propin-l-yl-benzylester]","4,4 mg",–,"43,4 mg","51,7 mg",–,"27,1 mg","2,6 mg","15,3 mg",–,–,–,–,–,–,–
"CC1(C)[C@@H](C=C(Cl)Cl)[C@@H]1C(=O)OCc1cccc(Oc2ccccc2)c1 (relative stereo) [Verbindung 203, (+)-trans-2,2-Dimethyl-3-(2,2-dichlorvinyl)-cyclopropancarbonsäure-3-phenoxybenzylester]",–,–,"54,2 mg",–,–,–,–,–,"17,4 mg","68,3 mg","28,1 mg","26,9 mg","39,3 mg",–,–
"CC1(C)[C@@H](C=C(Cl)Cl)[C@@H]1C(=O)OC(C#N)c1ccc(F)c(Oc2ccccc2)c1 (relative stereo) [Verbindung 302, (+)-trans-2,2-Dimethyl-3-(2,2-dichlorvinyl)-cyclopropancarbonsäure-3-phenoxy-4-fluor-a-cyanobenzylester]",–,–,–,–,–,–,–,–,–,"48,0 mg","16,3 mg","0,4 mg",–,"51,4 mg","9,3 mg"

# Reference: patent EP0170611A1, “Process for protecting keratinic material against deterioration by keratin devouring insects” (priority 1984, dated 1986)
